{
  "source": "patent US20060251617A1",
  "about": "“Methods for treating lymphomas” (Chiron Corporation, priority 2005, published 2006)",
  "key": {"[1]": {"system": "human B-cell lymphoma (Daudi) xenograft", "assay": "Daudi xenograft model: IL-2 with CHOP and individual CHOP constituents (Example 2)", "format": "in vivo, BALB/c nude mice", "conditions": "for Median Tumor Growth delay / Response rate (CR/PR): CR / Response rate (CR/PR): PR: Table 9, n = 10-20 mice/group; for CR/PR on day 28: CR: number of mice with complete response; for CR/PR on day 28: PR: number of mice with partial response; for Group Mean Days of Delay to 1000 mm^3: vs. control group", "method": "(§1) Passaged, clonally derived Daudi cells (5×10^6 cells/mouse) were reconstituted with 50% Matrigel (BD Biosciences) in a total volume of 0.1 ml and implanted subcutaneously into the right flank of irradiated (3Gy) BALB/c nude mice. Treatments were initiated when the mean tumor volume was 150-300 mm^3. Mice were randomly assigned typically into 10 mice per group. […] Tumor volume is measured using calipers. Caliper measurements of tumors were converted into tumor volume (mm^3) using the formula: ½ (length (mm)×[width (mm)]^2). Tumor growth inhibition (TGI) was calculated as [1−(mean tumor volume of treated group/mean tumor volume of control group)×100]. […] Tumor growth delay (TGD) analysis was calculated as: [(number of days for a treated group to reach a mean tumor volume of 1000 mm^3)−(number of days for the control group to reach a mean tumor volume of 1000 mm^3)]. Percent conditional survival is the percent of mice in each group in which the tumor volume has not reached 1000 mm^3.\nAthymic nude BALB/c mice (10 mice/group) were acclimated and irradiated mice were implanted with Daudi cells as described above. Treatment started when tumors were approximately 140 mm^3. This was designated study day 1.\nTreatment groups were as follows:\nDoxorubicin (H, adriamycin), 3.3 mg/kg, i.v, day 1;\nVincristine (O), 0.5 mg/kg, i.v, day 1;\nPrednisone (P), 0.2 mg/kg p.o, days 1-5;\nProleukin® (IL-2), 1 mg/kg; s.c., thrice weekly for 4 weeks, total 12 doses;\nProleukin® (IL-2)+individual chemotherapeutics (as dosed individually, started on day 1);\nProleukin® (IL-2)+CHOP (similar dosing regimens to single agents, started on day 1)."}, "[2]": {"system": "Daudi lymphoma tumor model", "assay": "Pooled Daudi xenograft studies and assessment of synergistic activity (Example 5)", "format": "in vivo, BALB/c nude mice", "conditions": "pooled studies; for Tumor response CR / Tumor response PR: number of mice, (n) in cell; for Tumor response RR: response rate; for TGI: vs. vehicle", "method": "as §1\n(§2) Multiple comparisons were performed using one-way analysis of variance (ANOVA); post-test to compare different treatment means was done using Student-Newman Keuls test (SigmaStat). Tumor growth delay for each animal (time to 1000 mm^3) was used as the endpoint for conditional survival, and significance between treatments was analysed using a log rank test (Prism). Mice that had no visible tumors at necropsy upon termination of the study were considered censored in this analysis. Differences were considered statistically significant at p<0.05.\nSeveral studies of these agents and combinations of these agents were performed in the Daudi lymphoma tumor model. The data from these multiple experiments were then pooled together for further analysis (Table 10). In vivo drug synergy was evaluated from the response index of combination treatments using multiple drug effect analyses."}, "[3]": {"system": "human B-cell lymphoma (Daudi) xenograft", "assay": "Daudi xenograft model of human B-cell lymphoma: IL-2/CHOP/rituximab regimens (Example 1)", "format": "in vivo, BALB/c nude mice", "method": "as §1, §2\nSee, e.g., Hudson et al., Leukemia (1998) 12:2029-2033 for a description of the Daudi xenograft model. The Daudi/BALB/c nude model expresses high levels of CD20 and is associated with a less aggressive/low grade disease profile. Furthermore, NK cells cannot lyse Daudi tumor cells in the absence of activation by cytokines such as IL-2. See, e.g., Damle et al., J. Immunol. (1987) 138:1779-1785.\n120 athymic nude BALB/c mice were acclimated for 1 week to the inoculation of Daudi human B-cell lines. Daudi cells (5×10^6 cells/mouse) were implanted s.c. (right flank) into irradiated young nude mice (3Gy for approximately 3.2 minutes) with 50% matrigel at a volume of 0.1 ml and grown as subcutaneous tumors until tumor volume reached 110 mm^3. This was designated study day 1.\nClinical observations were noted."}, "[4]": {"assay": "Body weight, clinical observations and tolerability in Daudi tumor-bearing mice", "conditions": "Example 5", "protocol": "(§3) Proleukin® treatment (1 mg/kg; s.c., thrice weekly) commenced either concomitantly (on day 8) or one week later (day 15) for a total of 4 weeks. […] Tumor volumes and body weights were measured two times per week. Clinical observations were noted."}, "[5]": {"conditions": "mouse, in vivo", "protocol": "as §3"}},
  "data": [
    {"molecule": "O=P1(N(CCCl)CCCl)NCCCO1", "note": "(stereo not drawn) [Cyclophosphamide, cyclophosphamide]", "values": [
      {"measurement": "Median Tumor Growth delay", "setting": "[1]", "value": 1, "unit": "days"},
      {"measurement": "Response rate (CR/PR): CR", "setting": "[1]", "value": "0/0"},
      {"measurement": "Response rate (CR/PR): PR", "setting": "[1]", "value": "0/0"},
      {"measurement": "CR/PR on day 28: CR", "setting": "[1]", "value": "0/0"},
      {"measurement": "CR/PR on day 28: PR", "setting": "[1]", "value": "0/0"},
      {"measurement": "Group Mean Days of Delay to 1000 mm^3", "setting": "[1]", "value": 1, "unit": "days"},
      {"measurement": "Growth delay", "setting": "[2]", "value": 1, "unit": "days"},
      {"measurement": "Tumor response CR", "setting": "[2]", "value": "0%; 0/0 (10)"},
      {"measurement": "Tumor response PR", "setting": "[2]", "value": "0%; 0/0 (10)"},
      {"measurement": "Tumor response RR", "setting": "[2]", "value": "0%; 0/0 (10)"},
      {"measurement": "TGI", "setting": "[2]", "value": "2%, p > 0.05"}
    ]},
    {"molecule": "COc1cccc2c1C(=O)c1c(O)c3c(c(O)c1C2=O)C[C@@](O)(C(=O)CO)C[C@@H]3O[C@H]1C[C@H](N)[C@H](O)[C@H](C)O1", "note": "[Doxorubicin]", "values": [
      {"measurement": "Median Tumor Growth delay", "setting": "[1]", "value": 2, "unit": "days"},
      {"measurement": "Response rate (CR/PR): CR", "setting": "[1]", "value": "0/0"},
      {"measurement": "Response rate (CR/PR): PR", "setting": "[1]", "value": "0/0"},
      {"measurement": "CR/PR on day 28: CR", "setting": "[1]", "value": "0/0"},
      {"measurement": "CR/PR on day 28: PR", "setting": "[1]", "value": "0/0"},
      {"measurement": "Group Mean Days of Delay to 1000 mm^3", "setting": "[1]", "value": 2, "unit": "days"},
      {"measurement": "Growth delay", "setting": "[2]", "value": 2, "unit": "days"},
      {"measurement": "Tumor response CR", "setting": "[2]", "value": "0%; 0/0 (10)"},
      {"measurement": "Tumor response PR", "setting": "[2]", "value": "0%; 0/0 (10)"},
      {"measurement": "Tumor response RR", "setting": "[2]", "value": "0%; 0/0 (10)"},
      {"measurement": "TGI", "setting": "[2]", "value": "9%, p > 0.05"}
    ]},
    {"molecule": "C[C@]12C=CC(=O)C=C1CC[C@@H]1[C@@H]2C(=O)C[C@@]2(C)[C@H]1CC[C@]2(O)C(=O)CO", "note": "[Prednisone]", "values": [
      {"measurement": "Median Tumor Growth delay", "setting": "[1]", "value": 2, "unit": "days"},
      {"measurement": "Response rate (CR/PR): CR", "setting": "[1]", "value": 1},
      {"measurement": "Response rate (CR/PR): PR", "setting": "[1]", "value": 0},
      {"measurement": "CR/PR on day 28: CR", "setting": "[1]", "value": 1},
      {"measurement": "CR/PR on day 28: PR", "setting": "[1]", "value": 0},
      {"measurement": "Group Mean Days of Delay to 1000 mm^3", "setting": "[1]", "value": 2, "unit": "days"},
      {"measurement": "Growth delay", "setting": "[2]", "value": 2, "unit": "days"},
      {"measurement": "Tumor response CR", "setting": "[2]", "value": 1},
      {"measurement": "Tumor response PR", "setting": "[2]", "value": 0},
      {"measurement": "Tumor response RR", "setting": "[2]", "value": 10, "unit": "%"},
      {"measurement": "TGI", "setting": "[2]", "value": "10%, p > 0.05"}
    ]},
    {"molecule": "CC[C@]1(O)C[C@H]2CN(CCc3c([nH]c4ccccc34)[C@@](C(=O)OC)(c3cc4c(cc3OC)N(C=O)[C@H]3[C@@](O)(C(=O)OC)[C@H](OC(C)=O)[C@]5(CC)C=CCN6CC[C@]43[C@@H]65)C2)C1", "note": "[Vincristine]", "values": [
      {"measurement": "Median Tumor Growth delay", "setting": "[1]", "value": 12, "unit": "days"},
      {"measurement": "Response rate (CR/PR): CR", "setting": "[1]", "value": "0/0"},
      {"measurement": "Response rate (CR/PR): PR", "setting": "[1]", "value": "0/0"},
      {"measurement": "CR/PR on day 28: CR", "setting": "[1]", "value": "0/0"},
      {"measurement": "CR/PR on day 28: PR", "setting": "[1]", "value": "0/0"},
      {"measurement": "Group Mean Days of Delay to 1000 mm^3", "setting": "[1]", "value": 12, "unit": "days"},
      {"measurement": "Growth delay", "setting": "[2]", "value": 12, "unit": "days"},
      {"measurement": "Tumor response CR", "setting": "[2]", "value": "0%; 0/0 (10)"},
      {"measurement": "Tumor response PR", "setting": "[2]", "value": "0%; 0/0 (10)"},
      {"measurement": "Tumor response RR", "setting": "[2]", "value": "0%; 0/0 (10)"}
    ]},
    {"molecule": "des-alanyl-1, serine-125 human interleukin-2 [IL-2]", "values": [
      {"measurement": "Median Tumor Growth delay", "setting": "[1]", "value": 2, "unit": "days"},
      {"measurement": "Response rate (CR/PR): CR", "setting": "[1]", "value": "0/0"},
      {"measurement": "Response rate (CR/PR): PR", "setting": "[1]", "value": "0/0"},
      {"measurement": "CR/PR on day 28: CR", "setting": "[1]", "value": "0/0"},
      {"measurement": "CR/PR on day 28: PR", "setting": "[1]", "value": "0/0"},
      {"measurement": "Group Mean Days of Delay to 1000 mm^3", "setting": "[1]", "value": 2, "unit": "days"},
      {"measurement": "CR/PR day 29: CR", "setting": "[3]; mouse, in vivo", "value": "0/0"},
      {"measurement": "CR/PR day 29: PR", "setting": "[3]; mouse, in vivo", "value": "0/0"},
      {"measurement": "CR/PR day 164: CR", "setting": "[3]; mouse, in vivo", "value": "1/0"},
      {"measurement": "CR/PR day 164: PR", "setting": "[3]; mouse, in vivo", "value": "1/0"},
      {"measurement": "tumor growth / efficacy in words", "setting": "[3]; mouse, in vivo", "value": "significantly inhibited tumor growth"},
      {"measurement": "median conditional survival (days to 1000 mm3)", "setting": "[3]; time for tumor to reach 1000 mm3", "value": 25, "unit": "days"},
      {"measurement": "TGI day 29", "setting": "[3]; tumor growth inhibition vs. vehicle, day 29, n = 10", "value": 33.52, "unit": "%"},
      {"measurement": "tolerability", "setting": "[4]", "value": "well-tolerated"},
      {"measurement": "Growth delay", "setting": "[2]", "value": 2, "unit": "days"},
      {"measurement": "Tumor response CR", "setting": "[2]", "value": 2},
      {"measurement": "Tumor response PR", "setting": "[2]", "value": 1},
      {"measurement": "Tumor response RR", "setting": "[2]", "value": 5, "unit": "%"},
      {"measurement": "% max BW. change (day, range)", "setting": "[5]", "value": "12(+8 to +14) day 39%"},
      {"measurement": "Clinical Observation", "setting": "[5]", "value": "BAR"}
    ]}
  ]
}
